According to US20240393292A1, “ALLERGY ANTIGEN AND EPITOPE THEREOF” (HOYU CO., LTD., priority 2019, published 2024):

System: IgE antibodies from patients
Assay: Wheat epitope mapping (2): overlapping 10-amino-acid peptide fragments shifted by one amino acid;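 on Rank of partial sequence as epitope binding to IgE antibody: key = sequence deemed particularly important within the common 15-residue sequence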;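 on epitope sequence binding to IgE antibody, rank (Key/Preferably/More preferably): key of grades: preferably = shorter partial sequence still acting as epitope; more preferably = sequence improving IgE binding; key = particularly important sequence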
Type: binding, human
Experimental: The peptides to be synthesized were shifted by one amino acid.
The library was prepared by the same procedure as described above in (A), and the presence or absence of binding of an IgE antibody present in the serum of a patient to each peptide fragment was measured by the same technique as described above. Numeric values determined from images obtained as a result of carrying out only the procedures (1) and (4) to (6) described above in the subsection titled (3) Spotting of cellulose-bound peptide solution were used as control values. The control value of each peptide was subtracted from numeric values determined from images obtained from results about the serum of patients, and the obtained value of the difference was compared with values of the peptides serving as the basis of overlapping.
Chemiluminescence intensity in images obtained by measurement was converted into a numeric value in the same manner as in (A). Numeric values determined from images obtained as a result of carrying out only the procedures (1) and (4) to (6) described above in the subsection titled (3) Spotting of cellulose-bound peptide solution (secondary antibody measurement values) were used as control values. The control value of each peptide was subtracted from numeric values determined from images obtained from results about the serum of patients. When values obtained using the sequences (SEQ ID NOs: 29, 131, 191, 281, 346, 414, 493, 562, 640, 706, 776, 899, 974, 1010, 1089, 1142, 1166, 1209, 1257, 1297, 1367, 1403, 1508, 1566, 1598, 1608, 1685, 1753, 1789, 1836, 1895, 1977, 2004, 2027, 2068, 2154, 2217, 2265, 2309, 2342, 2419, 2491, 2545, 2613, 2631, 2674, 2701, 2774, 2809 and 2830) serving as the basis of overlapping were defined as 100%, it was determined that: a peptide having a value of the difference that was less than 30% had no binding activity against IgE antibodies; a peptide having a value of the difference that was 30% or more and less than 50% had binding activity, albeit poor, against IgE antibodies; a peptide having a value of the difference that was 50% or more and less than 70% had binding activity, albeit somewhat poor, against IgE antibodies; and a peptide having a value of the difference that was 70% or more had equivalent or good binding activity against IgE antibodies and was thus a peptide had remaining binding activity against IgE antibodies.

[1] = serum of patient P24 (WDEIA), partial sequence
[2] = serum of patient G1 (adult, general immediate type allergy to wheat), sequence without X
[3] = serum of patient P32 (WDEIA), sequence without X
[4] = serum of patient P21 (WDEIA), partial sequence
[5] = serum of patient P35 (WDEIA), sequence without X
[6] = serum of patient P29 (WDEIA), sequence without X

1653 (YNPDKVPFV; REGION 1..9: note = epitope) [compound 1653]
Rank of partial sequence as epitope binding to IgE antibody (serum of patient P51 (child, general immediate type allergy to wheat), sequence without X): Preferably

2432 (QSTLKAWSGK; REGION 1..10: note = epitope) [compound 2432]
Epitope sequence binding to IgE antibody, rank of the sequence (Key/Preferably/More preferably) (serum of patient P26 (WDEIA), sequence without X): More preferably

1790 (SGKELE; REGION 1..6: note = epitope) [compound 1790]
epitope sequence binding to IgE antibody, rank (Key/Preferably/More preferably) (serum of patient P3 (WDEIA)): Key

2554 (LQQSTYQLVQ; REGION 1..10: note = epitope) [compound 2554]
Epitope sequence binding to IgE antibody, rank of the sequence (serum of patient P20 (WDEIA), partial sequence): Key

2564 (QLVQQ; REGION 1..5: note = epitope) [compound 2564]
Epitope sequence binding to IgE antibody, rank of the sequence [1]: Key

2722 (YKIGG; REGION 1..5: note = epitope) [compound 2722]
Epitope sequence binding to IgE antibody, rank of the sequence (serum of patient P26 (WDEIA), partial sequence): Preferably

2664 (FEKEA; REGION 1..5: note = epitope) [compound 2664]
Epitope sequence binding to IgE antibody, rank of the sequence (serum of patient P50 (child, general immediate type allergy to wheat), partial sequence): Key

2261 (LLRGIRNYRV; REGION 1..10: note = epitope) [compound 2261]
Epitope sequence binding to IgE antibody, rank of the sequence (Key/Preferably/More preferably) [2]: Key

1429 (YLQPQQ; REGION 1..6: note = epitope) [compound 1429]
Rank of partial sequence as epitope binding to IgE antibody (serum of patient P14 (WDEIA), sequence without X): Key

1248 (PQQPP; REGION 1..5: note = epitope) [compound 1248]
Epitope sequence binding to IgE antibody, rank of the sequence [3]: Key

1188 (QQFPPQQ; REGION 1..7: note = epitope) [compound 1188]
Epitope sequence binding to IgE antibody, rank of the sequence (serum of patient P21 (WDEIA), sequence without X): Preferably

2393 (PHDIDRCAYV; REGION 1..10: note = epitope) [compound 2393]
Epitope sequence binding to IgE antibody, rank of the sequence (Key/Preferably/More preferably) (serum of patient P34 (WDEIA), sequence without X): Preferably

1896 (VPLVQQQ; REGION 1..7: note = epitope) [compound 1896]
epitope sequence binding to IgE antibody, rank (Key/Preferably/More preferably) (serum of patient P2 (WDEIA)): Preferably

2563 (QLVQQLCC; REGION 1..8: note = epitope) [compound 2563]
Epitope sequence binding to IgE antibody, rank of the sequence [1]: Preferably

2558 (QSTYQLVQQL; REGION 1..10: note = epitope) [compound 2558]
Epitope sequence binding to IgE antibody, rank of the sequence [4]: Key

1828 (LEALPKFLK; REGION 1..9: note = epitope) [compound 1828]
epitope sequence binding to IgE antibody, rank (Key/Preferably/More preferably) (serum of patient G4 (adult, general immediate type allergy to wheat)): Key

2453 (LKAWSGK; REGION 1..7: note = epitope) [compound 2453]
Epitope sequence binding to IgE antibody, rank of the sequence (Key/Preferably/More preferably) [5]: Preferably

2227 (LLRGIRN; REGION 1..7: note = epitope) [compound 2227]
Epitope sequence binding to IgE antibody, rank of the sequence (Key/Preferably/More preferably) (serum of patient P18 (WDEIA), sequence without X): Key

2627 (LLASLSKRV; REGION 1..9: note = epitope) [compound 2627]
Epitope sequence binding to IgE antibody, rank of the sequence (serum of patient G7 (adult, general immediate type allergy to wheat), partial sequence): Key

1928 (VPLVQQQ; REGION 1..7: note = epitope) [compound 1928]
epitope sequence binding to IgE antibody, rank (Key/Preferably/More preferably) (serum of patient P15 (WDEIA)): Key

2219 (IRNYRVAI; REGION 1..8: note = epitope) [compound 2219]
Epitope sequence binding to IgE antibody, rank of the sequence (Key/Preferably/More preferably) (serum of patient P2 (WDEIA), sequence without X): Preferably

1415 (YLQPQQPIS; REGION 1..9: note = epitope) [compound 1415]
Epitope sequence binding to IgE antibody, rank of the sequence (serum of patient P4 (WDEIA), sequence without X): Key

1908 (QVPLVQQ; REGION 1..7: note = epitope) [compound 1908]
epitope sequence binding to IgE antibody, rank (Key/Preferably/More preferably) (serum of patient P7 (WDEIA)): Preferably

1759 (YLKK; REGION 1..4: note = epitope) [compound 1759]
epitope sequence binding to IgE antibody, rank (Key/Preferably/More preferably) (serum of patient P17 (WDEIA)): Key

1707 (SQVIIM; REGION 1..6: note = epitope) [compound 1707]
Rank of partial sequence as epitope binding to IgE antibody [6]: Key

1358 (VEDNRRALR; REGION 1..9: note = epitope) [compound 1358]
Epitope sequence binding to IgE antibody, rank of the sequence (serum of patient P36 (WDEIA), sequence without X): Preferably

2299 (GIDK; REGION 1..4: note = epitope) [compound 2299]
Epitope sequence binding to IgE antibody, rank of the sequence (Key/Preferably/More preferably) [2]: Key

2696 (YKGPTL; REGION 1..6: note = epitope) [compound 2696]
Epitope sequence binding to IgE antibody, rank of the sequence (serum of patient G3 (adult, general immediate type allergy to wheat), partial sequence): Key

2339 (AIIYS; REGION 1..5: note = epitope) [compound 2339]
Epitope sequence binding to IgE antibody, rank of the sequence (Key/Preferably/More preferably) (serum of patient G6 (adult, general immediate type allergy to wheat), sequence without X): Key

2595 (VQQL; REGION 1..4: note = epitope) [compound 2595]
Epitope sequence binding to IgE antibody, rank of the sequence (serum of patient P36 (WDEIA), partial sequence): Key

2646 (KEAAEMN; REGION 1..7: note = epitope) [compound 2646]
Epitope sequence binding to IgE antibody, rank of the sequence (serum of patient P22 (WDEIA), partial sequence): Key

1690 (EAANFT; REGION 1..6: note = epitope) [compound 1690]
Rank of partial sequence as epitope binding to IgE antibody (serum of patient P16 (WDEIA), sequence without X): Key

1930 (FPGQQQ; REGION 1..6: note = epitope) [compound 1930]
epitope sequence binding to IgE antibody, rank (Key/Preferably/More preferably) (serum of patient P15 (WDEIA)): Key

2659 (EAAEMNKRSF; REGION 1..10: note = epitope) [compound 2659]
Epitope sequence binding to IgE antibody, rank of the sequence (serum of patient P35 (WDEIA), partial sequence): Preferably

2398 (TEIVL; REGION 1..5: note = epitope) [compound 2398]
Epitope sequence binding to IgE antibody, rank of the sequence (Key/Preferably/More preferably) [5]: Preferably

2559 (LVQQLCC; REGION 1..7: note = epitope) [compound 2559]
Epitope sequence binding to IgE antibody, rank of the sequence [4]: Key

2346 (YVTEIV; REGION 1..6: note = epitope) [compound 2346]
Epitope sequence binding to IgE antibody, rank of the sequence (Key/Preferably/More preferably) (serum of patient P9 (WDEIA), sequence without X): Preferably

1658 (KVPFVPISG; REGION 1..9: note = epitope) [compound 1658]
Rank of partial sequence as epitope binding to IgE antibody (serum of patient P54 (child, general immediate type allergy to wheat), sequence without X): Key

1706 (EAANFT; REGION 1..6: note = epitope) [compound 1706]
Rank of partial sequence as epitope binding to IgE antibody [6]: Key

1941 (QQFPGQQQ; REGION 1..8: note = epitope) [compound 1941]
epitope sequence binding to IgE antibody, rank (Key/Preferably/More preferably) (serum of patient P21 (WDEIA)): More preferably

1950 (QQQFPGQQQ; REGION 1..9: note = epitope) [compound 1950]
epitope sequence binding to IgE antibody, rank (Key/Preferably/More preferably) (serum of patient P24 (WDEIA)): More preferably

2399 (TEIV; REGION 1..4: note = epitope) [compound 2399]
Epitope sequence binding to IgE antibody, rank of the sequence (Key/Preferably/More preferably) [5]: Key

1477 (YLQPQQPISQ; REGION 1..10: note = epitope) [compound 1477]
Rank of partial sequence as epitope binding to IgE antibody [3]: Preferably

1560 (QQQFLGQQ; REGION 1..8: note = epitope) [compound 1560]
Rank of partial sequence as epitope binding to IgE antibody (serum of patient P50 (child, general immediate type allergy to wheat), sequence without X): Key

2741 (GIGTVPVGRV; REGION 1..10: note = epitope) [compound 2741]
Epitope sequence binding to IgE antibody, rank of the sequence (serum of patient P31 (WDEIA), partial sequence): Key

1478 (YLQPQQPIS; REGION 1..9: note = epitope) [compound 1478]
Rank of partial sequence as epitope binding to IgE antibody [3]: Key
